Laboratory results published in US20210380951A1, “RNA-BASED METHODS TO LAUNCH HEPATITIS B VIRUS INFECTION” (priority 2018, published 2021).
Where a name gives a salt, the structure may show the parent alone.

Columns and labels:
WT HBV = assay: RNA launch method: inhibition of HBV replication from transfected pgRNA, read out as percent HBsAg (CLIA); type: cell-based; details: HBsAg with vs without inhibitor, FIG. 4
Protocol: The inhibitory effect of three reverse-transcriptase inhibitors, Entecavir (ETV), Tenofovir Disoproxil Fumarate (TDF), and Lamivudine (LAM) on WT HBV was compared. The inhibitory effect of LAM on the HBV viral variant M204V was also measured. The inhibition by the reverse-transcriptase inhibitors was determined as percent HBsAg by comparing the level of HBsAg in the presence and absence of the inhibitors.
HepG2-NTCP or Huh-7.5-NTCP cells were seeded at 2.5×10^5 cells per well in six-well plates two days before transfection. The media was changed to 2 ml DMEM containing 1.5% FBS and 0.1 mM NEAA just before transfection. […]
HBeAg and HBsAg were quantified using a chemiluminescence immunoassay (CLIA) kit (Autobio Diagnostics Co., Zhengzhou, China) according to the manufacturer's instructions. To quantify HBV DNA, total DNA was extracted from infected or RNA-transfected cells using QIAamp DNA Blood Mini Kit (Qiagen, cat. #51106) and HBV DNA was detected by qPCR as previously described (Michalidis et al., Sci Rep. 2017, November 30:7(1):16616). For each experiment, cells were transfected with T7-RFP as a negative control and DNA quantified from these cells was used to define the background. […]

chronic HBV = details: chronically infected patients, injectable; cited from earlier work

C=C1[C@H](CO)[C@@H](O)C[C@@H]1n1cnc2c(=O)[nH]c(N)nc21 [Entecavir]
inhibitory effect on WT HBV (HBV replication, percent HBsAg) (WT HBV): inhibited HBV replication in a dose-dependent manner

CC(C)OC(=O)OCOP(=O)(CO[C@H](C)Cn1cnc2c(N)ncnc21)OCOC(=O)OC(C)C [Tenofovir Disoproxil Fumarate]
inhibitory effect on WT HBV (HBV replication, percent HBsAg) (WT HBV): inhibited HBV replication in a dose-dependent manner

interferon alpha [IFNα]
success rate of curing chronic HBV (chronic HBV): ~10%
